In patent EP4577243B1, “STABLE LIPID OR LIPIDOID NANOPARTICLE SUSPENSIONS” (Ethris GmbH, priority 2022, dated 2024) one finds pKa data, which are given here for 1 compound.

A short description of this data set: pKa of ionizable lipids (Tables 1 to 3). In kind it is physicochemical. The following applies: Table 2.

Molecules are shown by their SMILES.

In general, pKa refers to the negative logarithm of the acid dissociation constant. Higher therefore signals a group that holds its proton tightly. Take `CCCCCCCC(=O)N(CCCN(C)C)C(CCCCCCCCC(=O)OC(CCCCCC)CCCCCC)CCCCCCCCC(=O)OC(CCCCCC)CCCCCC` [II-10]: the pKa was 6.16.
